pIC50: −log10 of the molar value.
Assays:
[1] = test system: pERK1/2(THR202/TYR204) level in AsPC-1 cell line; assay: KRAS G12D pERK assay; assay type: cell-based; details: Homo sapiens, ASPC1, 2 h, AsPC-1 cells, 2 h compound treatment, HTRF
Experimental: (§1) AsPC-1 cell line was used in this study. Cells were maintained in RPMI-1640 supplemented with 10% fetal bovine serum (Thermo Fisher), 50 units/mL penicillin and streptomycin (Thermo Fisher) and kept at 37° C. in a humidified atmosphere of 5% CO2 in air. Cells were reinstated from frozen stocks that were laid down within 30 passages from the original cells purchased. 30000 cells per well were seeded into a 96-well plate and incubated overnight. Cells were treated with a 10-point dilution series. The final compound concentration is from 0 to 10 μM. After 2 h compound treatment, cells were lysed, and the pERK1/2(THR202/TYR204) level in the cell lysates was detected by HTRF kit (Cisbio). In brief, a total of 16 μL of cell lysate from each well of a 96-well plate was transferred to a 384-well white assay plate. Lysate from each well was incubated with 2 μL of Eu3+-cryptate (donor) labeled anti-phospho-ERK1/2 and 2 μL of D2 (acceptor) labeled anti-phospho-ERK1/2 antibodies (Cisbio) overnight in dark at room temperature. When donor and acceptor are in close proximity, excitation of the donor with laser triggers a Fluorescence Resonance Energy Transfer (FRET) towards the acceptor, which in turn fluoresces at 655 nm wavelength. FRET signals were measured using a PHERAstar FSX reader (BMG Labtech). IC50 determination was performed by fitting the curve of percent inhibition versus the log of the inhibitor concentration using Dotmatics.

[2] = test system: ERK1/2 phosphorylation in SW1990 tumors; assay: SW1990 PD studies; assay type: in vivo, Female NCG mice; details: oral administration
Experimental: Female NCG mice were subcutaneously implanted with 5×10^6 SW1990 cells per 200 μL PBS/matrigel in the right flank. After inoculation, when tumors reached a mean volume of approximately 350-450 mm^3 in size, mice were randomized into treatment groups. Randomized mice would receive a single dose of vehicle consisting of 0.5% MC or test compounds at various dose (e.g. 30, 50, or 100 mg/kg) by oral administration. Plasma was collected at 0.5, 2, 4, and 7 hours, and tumor was collected at 7 hours after dosing to determine exposure levels. Tumor fragments were snap frozen in homogenization tubes with liquid nitrogen and homogenized with T-PER Tissue Protein Extraction Buffer with protease and phosphatase inhibitors added fresh before use. Tumor lysates were then analyzed for ERK1/2 phosphorylation.

[3] = test system: pERK1/2(THR202/TYR204) level in SW620 cell line; assay: KRAS G12V pERK assay; assay type: cell-based; details: Homo sapiens, SW-620; SW620 cells, 2 hrs compound treatment, HTRF
Experimental: as §1, with “SW620 cell” for “AsPC-1 cell”, “in RPMI 1640” for “in RPMI-1640”, “purchased. 40000” for “purchased. 30000”, “2 hrs” for “2 h”

Row | pIC50 [3] | Compound | pIC50 [1] | oral pharmacodynamic effects [2]
1 | 6.93 | Oc1cc(Cl)c(C2CC2)c(-c2nc3c4c(nc(OC[C@@]56CCCN5C[C@H](F)C6)nc4c2F)N2CCOC[C@H]2CO3)c1 [Example 6, 3-chloro-4-cyclopropyl-5-((S)-1-fluoro-11-(((2R,7aS)-2-fluorotetrahydro-1H-pyrrolizin-7a(5H)-yl)methoxy)-5a,6,8,9-tetrahydro-5H-4,7-dioxa-3,9a,10,12-tetraazabenzo[4,5]cyclohepta[1,2,3-de]naphthalen-2-yl)phenol] | – | –
2 | 8.17 | C#Cc1c(F)ccc2cc(O)cc(-c3nc4c5c(nc(OC[C@@]67CCCN6C[C@H](F)C7)nc5c3F)N3CCOC[C@H]3CO4)c12 [Example 4, 5-ethynyl-6-fluoro-4-((S)-1-fluoro-11-(((2R,7aS)-2-fluorotetrahydro-1H-pyrrolizin-7a(5H)-yl)methoxy)-5a,6,8,9-tetrahydro-5H-4,7-dioxa-3,9a,10,12-tetraazabenzo[4,5]cyclohepta[1,2,3-de]naphthalen-2-yl)naphthalen-2-ol] | 7.12 | –
3 | 7.14 | C#Cc1c(F)ccc2cc(O)cc(-c3nc4c5c(nc(OC[C@@H]6C[C@@H](F)CN6C)nc5c3F)N3CCOC[C@H]3CO4)c12 [Example 7, 5-ethynyl-6-fluoro-4-((S)-1-fluoro-11-(((2S,4R)-4-fluoro-1-methylpyrrolidin-2-yl)methoxy)-5a,6,8,9-tetrahydro-5H-4,7-dioxa-3,9a,10,12-tetraazabenzo[4,5]cyclohepta[1,2,3-de]naphthalen-2-yl)naphthalen-2-ol] | – | –
4 | 6.88 | Nc1cc(Cl)c(C(F)(F)F)c(-c2nc3c4c(nc(OC[C@@]56CCCN5C[C@H](F)C6)nc4c2F)N2CCOC[C@H]2CO3)c1 [Example 3, 3-chloro-5-((S)-1-fluoro-11-(((2R,7aS)-2-fluorotetrahydro-1H-pyrrolizin-7a(5H)-yl)methoxy)-5a,6,8,9-tetrahydro-5H-4,7-dioxa-3,9a,10,12-tetraazabenzo[4,5]cyclohepta[1,2,3-de]naphthalen-2-yl)-4-(trifluoromethyl)aniline] | – | –
5 | 8.89 | C#Cc1c(F)ccc2cc(O)cc(-c3nc4c5c(nc(OC[C@@]67CCCN6C[C@H](F)C7)nc5c3F)N3CCCOC[C@H]3CO4)c12 [Example 20, 5-ethynyl-6-fluoro-4-((S)-1-fluoro-12-(((2R,7aS)-2-fluorotetrahydro-1H-pyrrolizin-7a(5H)-yl)methoxy)-5a,6,9,10-tetrahydro-5H,8H-4,7-dioxa-3,10a,11,13-tetraazanaphtho[1,8-ab]heptalen-2-yl)naphthalen-2-ol] | – | –
6 | 7.89 | C#Cc1c(F)ccc2cc(O)cc(-c3nc4c5c(nc(OC[C@@]67CCCN6C[C@H](F)C7)nc5c3F)N3CCOCCC3CO4)c12 (stereo partly drawn) [Example 22, 5-ethynyl-6-fluoro-4-(1-fluoro-12-(((2R,7aS)-2-fluorotetrahydro-1H-pyrrolizin-7a(5H)-yl)methoxy)-5,5a,6,7,9,10-hexahydro-4,8-dioxa-3,10a,11,13-tetraazanaphtho[1,8-ab]heptalen-2-yl)naphthalen-2-ol] | – | –
7 | 7.66 | CCc1c(F)ccc2cc(O)cc(-c3nc4c5c(nc(OC[C@@]67CCCN6C[C@H](F)C7)nc5c3F)N3CCOC[C@H]3CO4)c12 [Example 5, 5-ethyl-6-fluoro-4-((S)-1-fluoro-11-(((2R,7aS)-2-fluorotetrahydro-1H-pyrrolizin-7a(5H)-yl)methoxy)-5a,6,8,9-tetrahydro-5H-4,7-dioxa-3,9a,10,12-tetraazabenzo[4,5]cyclohepta[1,2,3-de]naphthalen-2-yl)naphthalen-2-ol] | – | –

Further lines, the compound ahead of its results:

Row | Compound | pIC50 [3] | pIC50 [1] | oral pharmacodynamic effects [2]
8 | Cc1cc(N)cc(-c2nc3c4c(nc(OCC56COC(C(F)F)(C5)C6)nc4c2F)N2C[C@H]4CC[C@H](N4)[C@H]2CCO3)c1C(F)(F)F [Example 29, 3-((6aR,7S,10R)-13-((1-(difluoromethyl)-2-oxabicyclo[2.1.1]hexan-4-yl)methoxy)-1-fluoro-5,6,6a,7,8,9,10,11-octahydro-4-oxa-3,11a,12,14,15-pentaaza-7,10-methanocyclohepta[4,5]cyclo-octa[1,2,3-de]naphthalen-2-yl)-5-methyl-4-(trifluoromethyl)aniline] | – | 7.04 | enhanced oral pharmacodynamic effects
9 | Cc1cc(N)cc(-c2nc3c4c(nc(OCC5(C(F)F)COC5)nc4c2F)N2C[C@H]4CC[C@H](N4)[C@H]2CCO3)c1C(F)(F)F [Example 26, 3-((6aR,7S,10R)-13-((3-(difluoromethyl)oxetan-3-yl)methoxy)-1-fluoro-5,6,6a,7,8,9,10,11-octahydro-4-oxa-3,11a,12,14,15-pentaaza-7,10-methanocyclohepta[4,5]cycloocta[1,2,3-de]naphthalen-2-yl)-5-methyl-4-(trifluoromethyl)aniline] | – | 6.85 | enhanced oral pharmacodynamic effects
10 | N#Cc1c(N)sc2c(F)ccc(-c3c(Cl)c4c5c(nc(OC[C@@]67CCCN6C[C@H](F)C7)nc5c3F)N3CCOC[C@H]3CO4)c12 (single isomer, unassigned) [Example 14-Isomer 2] | 7.48 | – | –
11 | N#Cc1c(N)sc2c(F)ccc(-c3c(Cl)c4c5c(nc(OC[C@@]67CCCN6C[C@H](F)C7)nc5c3F)N3CCOC[C@@H]3CCO4)c12 [Example 18] | 7.52 | – | –
12 | N#Cc1c(N)sc2c(F)ccc(-c3cc4c5c(nc(OC[C@@]67CCCN6C[C@H](F)C7)nc5c3F)N3CCOC[C@H]3CO4)c12 [Example 1, 2-amino-7-fluoro-4-((S)-4-fluoro-2-(((2R,7aS)-2-fluorotetrahydro-1H-pyrrolizin-7a(5H)-yl)methoxy)-8a,9,11,12-tetrahydro-8H-[1,4]oxazino[3′,4′:3,4][1,4]oxazepino[5,6,7-de]quinazolin-5-yl)benzo[b]thiophene-3-carbonitrile] | 6.79 | – | –
13 | N#Cc1c(N)sc2c(F)ccc(-c3c(Cl)c4c5c(nc(OC[C@@]67CCCN6C[C@H](F)C7)nc5c3F)N3C5CCC3(COC5)CO4)c12 (stereo partly drawn) [Example 15, 2-amino-4-(11-chloro-9-fluoro-7-(((2R,7aS)-2-fluorotetrahydro-1H-pyrrolizin-7a(5H)-yl)methoxy)-3,4-dihydro-1H,13H-4,13a-ethano[1,4]oxazino[3′,4′:3,4][1,4]oxazepino[5,6,7-de]quinazolin-10-yl)-7-fluorobenzo[b]thiophene-3-carbonitrile] | 7.08 | – | –
14 | Nc1cc(Cl)c(C(F)(F)F)c(-c2nc3c4c(nc(OC[C@@]56CCCN5C[C@H](F)C6)nc4c2F)N2CCOCCC2CO3)c1 (stereo partly drawn) [Example 21, 3-chloro-5-(1-fluoro-12-(((2R,7aS)-2-fluorotetrahydro-1H-pyrrolizin-7a(5H)-yl)methoxy)-5,5a,6,7,9,10-hexahydro-4,8-dioxa-3,10a,11,13-tetraazanaphtho[1,8-ab]heptalen-2-yl)-4-(trifluoromethyl)aniline] | 7.13 | – | –
15 | Nc1cc(Cl)c(C(F)(F)F)c(-c2nc3c4c(nc(OC[C@@]56CCCN5C[C@H](F)C6)nc4c2F)N2CCOC[C@@H]2CCO3)c1 [Example 16, 3-chloro-5-((S)-1-fluoro-12-(((2R,7aS)-2-fluorotetrahydro-1H-pyrrolizin-7a(5H)-yl)methoxy)-5,6,6a,7,9,10-hexahydro-4,8-dioxa-3,10a,11,13-tetraazabenzo[4,5]cycloocta[1,2,3-de]naphthalen-2-yl)-4-(trifluoromethyl)aniline] | 7.62 | – | –

Reference: patent publication US20250262222A1, “HETEROCYCLIC COMPOUNDS, COMPOSITIONS THEREOF, AND METHODS OF TREATMENT THEREWITH” (BeiGene Switzerland GmbH, priority 2022, published 2025)
